These results are taken from patent publication US10562850B2, “Human plasma kallikrein inhibitors” (priority 2015, dated 2020).

Bounds are passed on as bounds.

The target of one experiment is human plasma kallikrein (Homo sapiens (Human), UniProt P03952). The experiment is described as follows: Plasma Kallikrein Activity Assay (chromogenic substrate S2302). It counts as biochemical. The conditions noted are these: 2 nM kallikrein, 80 μM S2302, 30° C., pH 7.8; Cheng-Prusoff. The essentials:
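2 nM human plasma kallikrein incubated at 30° C with 80 μM S2302 and increasing compound concentrations in 50 mM Tris-HCl pH 7.8, 200 mM NaCl, 2.5 mM CaCl2. Activity read as absorbance change at 405 nm; four-parameter logistic fit, Ki by Cheng-Prusoff.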

In experiment [1] the test system is patients with hereditary angioedema (HAE). The conditions noted are these: cited from earlier work.
For a further experiment, the system named is rat models of arthritis. Conditions: cited from earlier work.
Experiment [2] relates to animal model of ischemic stroke. Conditions: cited from earlier work.
Experiment [3] deals with mouse model of middle cerebral artery occlusion (MCAO). Conditions: cited from earlier work.
In another experiment the test system is sepsis patients. The conditions noted are these: cited from earlier work.

Chain of human plasma kallikrein (P03952 391-638): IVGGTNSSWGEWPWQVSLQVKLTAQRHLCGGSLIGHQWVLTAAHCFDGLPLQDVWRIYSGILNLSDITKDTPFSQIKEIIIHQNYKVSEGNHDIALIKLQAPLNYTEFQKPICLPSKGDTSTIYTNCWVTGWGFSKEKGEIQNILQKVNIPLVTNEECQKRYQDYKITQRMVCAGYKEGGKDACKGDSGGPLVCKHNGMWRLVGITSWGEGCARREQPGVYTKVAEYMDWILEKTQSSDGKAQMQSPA
Chain of human plasma kallikrein (P03952 20-390 partner): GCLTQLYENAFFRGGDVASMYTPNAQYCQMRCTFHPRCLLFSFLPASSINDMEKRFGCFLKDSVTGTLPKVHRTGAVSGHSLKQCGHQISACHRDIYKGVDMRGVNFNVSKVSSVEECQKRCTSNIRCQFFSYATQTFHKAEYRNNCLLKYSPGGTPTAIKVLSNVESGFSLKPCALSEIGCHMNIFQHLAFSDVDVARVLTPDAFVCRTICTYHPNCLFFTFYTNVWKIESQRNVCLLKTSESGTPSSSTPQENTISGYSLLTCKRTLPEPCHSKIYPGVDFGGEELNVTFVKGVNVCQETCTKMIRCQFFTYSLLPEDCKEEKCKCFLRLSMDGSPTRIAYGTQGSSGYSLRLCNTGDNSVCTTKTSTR

`CCNC(CCC1CC1)(c1ccncc1)c1ccc(F)c(NC(=O)[C@H]2C[C@@H](OC)CN2C(=O)Nc2ccc(Cl)cn2)c1` (stereo partly drawn) [Compound 77a, (2R,4R)-N1-(5-chloropyridin-2-yl)-N2-(5-((+)-3-cyclopropyl-1-(ethylamino)-1-(pyridin-4-yl)propyl)-2-fluorophenyl)-4-methoxypyrrolidine-1,2-dicarboxamide] registered a Ki on human plasma kallikrein of less than 50 nM.

`CCNC(CCC1CC1)(c1ccnc(C)c1)c1ccc(F)c(NC(=O)[C@H]2C[C@@H](OC)CN2C(=O)Nc2ccc(Cl)cn2)c1` (stereo partly drawn) [Compound 78a, (2R,4R)-N1-(5-chloropyridin-2-yl)-N2-(5-((+)-3-cyclopropyl-1-(ethylamino)-1-(2-methylpyridin-4-yl)propyl)-2-fluorophenyl)-4-methoxypyrrolidine-1,2-dicarboxamide] registered a Ki on human plasma kallikrein of less than 50 nM.

`CNC(CCC1CC1)(c1ccnc(C)c1)c1ccc(F)c(NC(=O)[C@H]2C[C@@H](OC)CN2C(=O)Nc2ccc(Cl)cn2)c1` (stereo partly drawn) [Compound 79a, (2R,4R)-N1-(5-chloropyridin-2-yl)-N2-(5-((+)-3-cyclopropyl-1-(methylamino)-1-(2-methylpyridin-4-yl)propyl)-2-fluorophenyl)-4-methoxypyrrolidine-1,2-dicarboxamide] returned a Ki on human plasma kallikrein of less than 50 nM.

The molecule `NC(CCC1CC1)(c1ccncc1)c1ccc(F)c(NC(=O)[C@H]2C[C@H]3C[C@H]3N2)c1` (stereo partly drawn) [Compound 80c, (1R,3R,5R)-N-(5-((+)-1-amino-3-cyclopropyl-1-(pyridin-4-yl)propyl)-2-fluorophenyl)-2-azabicyclo[3.1.0]hexane-3-carboxamide] came in with a Ki on human plasma kallikrein of 50 to 100 nM.

In turn, `CO[C@@H]1C[C@H](C(=O)Nc2cc(C(N)(CCC3CC3)c3ccncc3)ccc2F)N(C(=O)Nc2ccc(Cl)s2)C1` (stereo partly drawn) [Compound 81h, (2R,4R)-N2-(5-((−)-1-amino-3-cyclopropyl-1-(pyridin-4-yl)propyl)-2-fluorophenyl)-N1-(5-chlorothiophen-2-yl)-4-methoxypyrrolidine-1,2-dicarboxamide] yielded a Ki at human plasma kallikrein of less than 50 nM.

Consider `CO[C@@H]1C[C@H](C(=O)Nc2cc(C(N)(CCC3CC3)c3ccncc3)ccc2F)N(C(=O)c2ccc3cc[nH]c3c2)C1` (stereo partly drawn) [Compound 82a, (2R,4R)-N-(5-(-(+)-1-amino-3-cyclopropyl-1-(pyridin-4-yl)propyl)-2-fluorophenyl)-1-(1H-indole-6-carbonyl)-4-methoxypyrrolidine-2-carboxamide], for which the Ki on human plasma kallikrein is greater than 100 nM.

The molecule `CO[C@@H]1C[C@H](C(=O)Nc2cc(C(N)(CCC3CC3)c3ccncc3)ccc2F)N(C(=O)c2ccc3c(Cl)c[nH]c3c2)C1` (stereo partly drawn) [Compound 83a, (2R,4R)-N-(5-((+)-1-amino-3-cyclopropyl-1-(pyridin-4-yl)propyl)-2-fluorophenyl)-1-(3-chloro-1H-indole-6-carbonyl)-4-methoxypyrrolidine-2-carboxamide] displayed a Ki on human plasma kallikrein greater than 100 nM.

At human plasma kallikrein, `CO[C@@H]1C[C@H](C(=O)Nc2cc(C(N)(CCC3CC3)c3ccncc3)ccc2F)N(C(=O)c2ccc(Cl)c(N)c2)C1` (stereo partly drawn) [Compound 84a, (2R,4R)-N-(5-((+)-1-amino-3-cyclopropyl-1-(pyridin-4-yl)propyl)-2-fluorophenyl)-1-(3-amino-4-chlorobenzoyl)-4-methoxypyrrolidine-2-carboxamide] displayed a Ki greater than 100 nM.

In the case of `CO[C@@H]1C[C@H](C(=O)Nc2cc(C(N)(CCC3CC3)c3ccncc3)ccc2F)N(C(=O)c2ccc(F)c(N)c2)C1` (stereo partly drawn) [Compound 85a, (2R,4R)-N-(5-((+)-1-amino-3-cyclopropyl-1-(pyridin-4-yl)propyl)-2-fluorophenyl)-1-(3-amino-4-fluorobenzoyl)-4-methoxypyrrolidine-2-carboxamide], the Ki on human plasma kallikrein was greater than 100 nM.

For the molecule `CO[C@@H]1C[C@H](C(=O)Nc2cc(C(N)(CCC3CC3)c3ccncc3)ccc2F)N(C(=O)c2cccc(C#N)c2)C1` (stereo partly drawn) [Compound 86a, (2R,4R)-N-(5-((+)-1-amino-3-cyclopropyl-1-(pyridin-4-yl)propyl)-2-fluorophenyl)-1-(3-cyanobenzoyl)-4-methoxypyrrolidine-2-carboxamide], the Ki at human plasma kallikrein was greater than 100 nM.

On human plasma kallikrein, `CO[C@@H]1C[C@H](C(=O)Nc2cc([C@](CCC3CC3)(N[S@+]([O-])C(C)(C)C)c3ccncc3)ccc2F)N(S(=O)(=O)c2ccc3cc(Cl)ccc3c2)C1` [Compound 87b, (2R,4R)-1-(6-chloronaphthalen-2-ylsulfonyl)-N-(5-((S)-3-cyclopropyl-1-((R)-1,1-dimethylethylsulfinamido)-1-(pyridin-4-yl)propyl)-2-fluorophenyl)-4-methoxypyrrolidine-2-carboxamide] showed a Ki greater than 100 nM.

For `NC(N)=NCCC[C@@H](N)C(=O)N[C@@H](CCCN=C(N)N)C(=O)N1CCC[C@H]1C(=O)N1C[C@H](O)C[C@H]1C(=O)NCC(=O)N[C@@H](Cc1cccs1)C(=O)N[C@@H](CO)C(=O)N1Cc2ccccc2C[C@@H]1C(=O)N1[C@H](C(=O)N[C@@H](CCCN=C(N)N)C(=O)O)C[C@@H]2CCCC[C@@H]21` [Icatibant], the “treating HAE” value in experiment [1] is “effective in treating HAE”.

Regarding `Cl.NCC1CCC(C(=O)N[C@@H](Cc2ccccc2)C(=O)Nc2ccc(CC(=O)O)cc2)CC1` (stereo partly drawn) [PKSI-527], the joint swelling entry in the experiment on rat models of arthritis is listed as “reduce joint swelling”.

On human plasma kallikrein, “(2R,4R)-N1-(4-chlorophenyl)-N2-(5-((+)-3-cyclopropyl-1-((S)-1,1-dimethylethylsulfinamido)-1-(pyridin-2-yl)propyl)-2-fluorophenyl)-4-hydroxypyrrolidine-1,2-dicarboxamide [Compound 61b]” showed a Ki of less than 50 nM.

ecallantide [DX-88]: the “edema in patients with hereditary angioedema (HAE)” value in experiment [1] is “alleviates edema”. Further, in experiment [2], the “brain edema, infarct volume, and neurological deficits” value is “reduced brain edema, infarct volume, and neurological deficits”.

B1: C1-inhibitor: a physiological inhibitor (C1-inhibitor) (protein, UniProt P05155 23-500, looked up)
Plasma protease C1 inhibitor: NPNATSSSSQDPESLQDRGEGKVATTVISKMLFVEPILEVSSLPTTNSTTNSATKITANTTDEPTTQPTTEPTTQPTIQPTQPTTQLPTDSPTQPTTGSFCPGPVTLCSDLESHSTEAVLGDALVDFSLKLYHAFSAMKKVETNMAFSPFSIASLLTQVLLGAGENTKTNLESILSYPKDFTCVHQALKGFTTKGVTSVSQIFHSPDLAIRDTFVNASRTLYSSSPRVLSNNSDANLELINTWVAKNTNNKISRLLDSLPSDTRLVLLNAIYLSAKWKTTFDPKKTRMEPFHFKNSVIKVPMMNSKKYPVAHFIDQTLKAKVGQLQLSHNLSLVILVPQNLKHRLEDMEQALSPSVFKAIMEKLEMSKFQPTLLTLPRIKVTTSQDMLSIMEKLEFFDFSYDLNLCGLTEDPDLQVSAMQHQTVLELTETGVEAAAASAISVARTLLVFEVQQPFLFVLWDQQHKFPVFMGRVYDPRA
As to B1, the infarct size result in experiment [3] is “reduced infarct size”. Besides, in the experiment on sepsis patients, the “clinical outcome in sepsis patients” value is listed as “Clinical improvement was observed”.

What is called Ki is a measure of affinity in units of concentration, obtained from inhibition or displacement. Higher therefore signals a looser hold on the target.
